Experimental data reported in patent US12264134B2 (Merck Sharp & Dohme LLC, priority 2018, dated 2025).

What follows are molecules tested against IDO1 (Homo sapiens, UniProt P14902) (assay: IDO1 Cellular Assay in HeLa Cells Stimulated with IFNγ). Details: read-out: HeLa Cell Potency, IC50.
Type: cell-based

Chain of IDO1 (P14902 whole entry): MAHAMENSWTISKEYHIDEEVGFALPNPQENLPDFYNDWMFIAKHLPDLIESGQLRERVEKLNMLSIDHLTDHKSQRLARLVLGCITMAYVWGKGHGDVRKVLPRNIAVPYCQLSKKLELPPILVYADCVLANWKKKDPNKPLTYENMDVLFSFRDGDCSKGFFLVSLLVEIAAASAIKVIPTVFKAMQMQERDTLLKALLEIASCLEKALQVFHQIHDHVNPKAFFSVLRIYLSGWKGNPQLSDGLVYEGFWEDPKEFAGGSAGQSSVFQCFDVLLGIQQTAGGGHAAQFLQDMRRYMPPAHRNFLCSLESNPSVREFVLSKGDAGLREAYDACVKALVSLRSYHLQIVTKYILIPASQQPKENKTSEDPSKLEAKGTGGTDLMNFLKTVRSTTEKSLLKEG

Row | Compound | IC50 [nM]
1 | Cc1cccc(N2CCN(C(=O)Cn3nc(C(=O)N4CCC(N)CC4)c4c3CCC4)CC2)c1C [Example 200, 2-[3-(4-aminopiperidine-1-carbonyl)-5,6-dihydrocyclopenta[c]pyrazol-1(4H)-yl]-1-[4-(2,3-dimethylphenyl)piperazin-1-yl]ethan-1-one] | 26.6
2 | Cc1c(Cl)cccc1N1CCN(C(=O)Cn2nc(C(=O)N3CC[C@@H](O)[C@@H](F)C3)c3c2CCC(F)(F)C3)CC1 [Example 378, 1-(4-(3-chloro-2-methylphenyl)piperazin-1-yl)-2-(5,5-difluoro-3-((3 S,4R)-3-fluoro-4-hydroxypiperidine-1-carbonyl)-4,5,6,7-tetrahydro-1H-indazol-1-yl)ethan-1-one] | 9.25
3 | Cc1cccc(N2CCN(C(=O)Cn3nc(C(=O)N4CC[C@@H](O)[C@@H](F)C4)c4c3C[C@@H]3C[C@H]43)CC2)c1C [Example 298, 1-[4-(2,3-dimethylphenyl)piperazin-1-yl]-2-{(3bS,4aS)-3-[(3S,4R)-3-fluoro-4-hydroxypiperidine-1-carbonyl]-3b,4,4a,5-tetrahydro-1H-cyclopropa[3,4]cyclopenta[1,2-c]pyrazol-1-yl}ethan-1-one] | 14.3
4 | Cc1cccc(N2CCN(C(=O)Cn3nc(C(=O)N4CC[C@@H](O)[C@@H](F)C4)c4c3CC(F)C4)CC2)c1C (mixture of isomers) [Example 417, 1-(4-(2,3-dimethylphenyl)piperazin-1-yl)-2-(5-fluoro-3-((3S,4R)-3-fluoro-4-hydroxypiperidine-1-carbonyl)-5,6-dihydrocyclopenta[c]pyrazol-1(4H)-yl)ethan-1-one] | 27
5 | Cc1cc(N2CCN(C(=O)Cn3nc(C(=O)N4C[C@@H](C)O[C@@H](C)C4)c4c3CCC4)CC2)ccc1F [Example 53] | 76.9
6 | COCC(=O)N1CCN(C(=O)c2nn(CC(=O)N3CCN(c4cccc(C)c4C)CC3)c3c2CCC3)CC1 [Example 399, 1-(4-(2,3-dimethylphenyl)piperazin-1-yl)-2-(3-(4-(2-methoxyacetyl)piperazine-1-carbonyl)-5,6-dihydrocyclopenta[c]pyrazol-1(4H)-yl)ethanone] | 22.4
7 | Cc1cccc(N2CCN(C(=O)Cn3nc(C(=O)N4CC5C(CO)C5C4)c4c3CCC4)CC2)c1C (centres unmarked) [Example 131, 1-[4-(2,3-dimethylphenyl)piperazin-1-yl]-2-{3-[6-(hydroxymethyl)-3-azabicyclo[3.1.0]hexane-3-carbonyl]-5,6-dihydrocyclopenta[c]pyrazol-1(4H)-yl}ethan-1-one] | 23.2
8 | Cc1cccc(N2CCN(C(=O)Cn3nc(C(=O)N4CCC(C(F)F)C4)c4c3C[C@H]3C[C@@H]43)CC2)c1C (stereo partly drawn) [Example 233, 2-{(3bR,4aR)-3-[3-(difluoromethyl)pyrrolidine-1-carbonyl]-3b,4,4a,5-tetrahydro-1H-cyclopropa[3,4]cyclopenta[1,2-c]pyrazol-1-yl}-1-[4-(2,3-dimethylphenyl)piperazin-1-yl]ethan-1-one] | 2.33
9 | Cc1cccc(N2CCN(C(=O)Cn3nc(C(=O)N4CC5C(N)C5C4)c4c3CCC4)CC2)c1C (centres unmarked) [Example 196, 2-[3-(6-amino-3-azabicyclo[3.1.0]hexane-3-carbonyl)-5,6-dihydrocyclopenta[c]pyrazol-1(4H)-yl]-1-[4-(2,3-dimethylphenyl)piperazin-1-yl]ethan-1-one] | 103
10 | COc1c(C#N)cccc1N1CCN(C(=O)Cn2nc(C(=O)N3C[C@@H](C)O[C@@H](C)C3)c3c2CCC3)CC1 [Example 63, 3-[4-({3-[(2R,6S)-2,6-dimethylmorpholine-4-4-carbonyl]-5,6-dihydrocyclopenta[c]pyrazol-1(4H)-yl}acetyl)piperazin-1-yl]-2-methoxybenzonitrile] | 335
11 | Cc1cccc(N2CCN(C(=O)Cn3nc(C(=O)N4CCC(NC(=O)C5CC5)CC4)c4c3C[C@H]3C[C@@H]43)CC2)c1C [Example 257, N-{1-[(3bR,4aR)-1-{2-[4-(2,3-dimethylphenyl)piperazin-1-yl]-2-oxoethyl}-3b,4,4a,5-tetrahydro-1H-cyclopropa[3,4]cyclopenta[1,2-c]pyrazole-3-carbonyl]piperidin-4-yl}cyclopropanecarboxamide] | 1.05

Next, values leading:

Row | IC50 [nM] | Compound
12 | 0.75 | Cc1cccc(N2CCN(C(=O)Cn3nc(C(=O)N4CCC(O)(CO)CC4)c4c3C[C@H]3C[C@@H]43)CC2)c1C [Example 263, 1-[4-(2,3-dimethylphenyl)piperazin-1-yl]-2-{(3bR,4aR)-3-[4-hydroxy-4-(hydroxymethyl)piperidine-1-carbonyl]-3b,4,4a,5-tetrahydro-1H-cyclopropa[3,4]cyclopenta[1,2-c]pyrazol-1-yl}ethan-1-one]
13 | 381 | Cc1cccc(N2CCN(C(=O)Cn3nc(C(=O)N4CC[C@H](O)[C@@H](F)C4)c4c3CC(O)C4)CC2)c1C (mixture of isomers) [Example 414, 1-(4-(2,3-dimethylphenyl)piperazin-1-yl)-2-(3-((3 S,4S)-3-fluoro-4-hydroxypiperidine-1-carbonyl)-5-hydroxy-5,6-dihydrocyclopenta[c]pyrazol-1 (4H)-yl)ethanone]
14 | 55.4 | Cc1cccc(N2CCN(C(=O)Cn3nc(C(=O)N4CC5CC(C4)C5O)c4c3CCC4)CC2)c1C (centres unmarked) [Example 306, 1-[4-(2,3-dimethylphenyl)piperazin-1-yl]-2-[3-(6-hydroxy-3-azabicyclo[3.1.1]heptane-3-carbonyl)-5,6-dihydrocyclopenta[c]pyrazol-1(4H)-yl]ethan-1-one]
15 | 1.52 | Cc1cccc(N2CCN(C(=O)Cn3nc(C(=O)N4CCC(N5CCNC5=O)CC4)c4c3C[C@H]3C[C@@H]43)CC2)c1C [Example 253, 1-{1-[(3bR,4aR)-1-{2-[4-(2,3-dimethylphenyl)piperazin-1-yl]-2-oxoethyl}-3b,4,4a,5-tetrahydro-1H-cyclopropa[3,4]cyclopenta[1,2-c]pyrazole-3-carbonyl]piperidin-4-yl}imidazolidin-2-one]
16 | 61.4 | Cc1cccc(N2CCN(C(=O)Cn3nc(C(=O)N4CC5(CNC5)C4)c4c3C[C@H]3C[C@@H]43)CC2)c1C [Example 232, 2-[(3bR,4aR)-3-(2,6-diazaspiro[3.3]heptane-2-carbonyl)-3b,4,4a,5-tetrahydro-1H-cyclopropa[3,4]cyclopenta[1,2-c]pyrazol-1-yl]-1-[4-(2,3-dimethylphenyl)piperazin-1-yl]ethan-1-one]
17 | 183 | O=C(Cn1nc(C(=O)N2CCC(O)CC2)c2c1CCC2)N1CCN(C2CCCc3ccccc32)CC1 (single isomer, unassigned) [Example 429]
18 | 17.1 | Cc1cccc(N2CCN(C(=O)Cn3nc(C(=O)N4CC[C@H](O)[C@H](F)C4)c4c3CCC4)CC2)c1C [Example 97, 1-[4-(2,3-dimethylphenyl)piperazin-1-yl]-2-{3-[(3R,4S)-3-fluoro-4-hydroxypiperidine-1-carbonyl]-5,6-dihydrocyclopenta[c]pyrazol-1(4H)-yl}ethan-1-one]
19 | 42.6 | Cc1cccc(N2CCN(C(=O)Cn3nc(C(=O)N4CCC(O)(CF)C4)c4c3CCC4)CC2)c1C (single isomer, unassigned) [Example 484, (S or R)-1-(4-(2,3-dimethylphenyl)piperazin-1-yl)-2-(3-(3-fluoromethyl)-3-hydroxypyrrolidine-1-carbonyl)-5,6-dihydrocyclopenta[c] pyrazol-1(4H)-yl) ethanone]
20 | 9.52 | Cc1c(Cl)cccc1N1CCN(C(=O)Cn2nc(C(=O)N3CC[C@@H](O)[C@@H](F)C3)c3c2CCC(F)C3)CC1 (stereo partly drawn) [Example 370, 1-(4-(3-chloro-2-methylphenyl)piperazin-1-yl)-2-(5-fluoro-3-((3S,4R)-3-fluoro-4-hydroxypiperidine-1-carbonyl)-4,5,6,7-tetrahydro-1H-indazol-1-yl)ethan-1-one]
21 | 0.94 | Cc1cccc(N2CCN(C(=O)Cn3nc(C(=O)N4CC[C@H](CO)C4)c4c3C[C@H]3C[C@@H]43)CC2)c1C [Example 251, 1-[4-(2,3-dimethylphenyl)piperazin-1-yl]-2-{(3bR,4aR)-3-[(3S)-3-(hydroxymethyl)pyrrolidine-1-carbonyl]-3b,4,4a,5-tetrahydro-1H-cyclopropa[3,4]cyclopenta[1,2-c]pyrazol-1-yl}ethan-1-one]
22 | 3.01 | Cc1cccc(N2CCN(C(=O)Cn3nc(C(=O)N4CCC(C)(O)CC4C)c4c3C[C@H]3C[C@@H]43)CC2)c1C (stereo partly drawn) [Example 245, 1-[4-(2,3-dimethylphenyl)piperazin-1-yl]-2-[(3bR,4aR)-3-(4-hydroxy-2,4-dimethylpiperidine-1-carbonyl)-3b,4,4a,5-tetrahydro-1H-cyclopropa[3,4]cyclopenta[1,2-c]pyrazol-1-yl]ethan-1-one]
23 | 15.8 | CC1=NC2(CCN(C(=O)c3nn(CC(=O)N4CCN(c5cccc(C)c5C)CC4)c4c3CCC4)CC2)C(=O)N1 [Example 134, 8-(1-{2-[4-(2,3-dimethylphenyl)piperazin-1-yl]-2-oxoethyl}-1,4,5,6-tetrahydrocyclopenta[c]pyrazole-3-carbonyl)-2-methyl-1,3,8-triazaspiro[4.5]dec-1-en-4-one]
24 | 2.52 | Cc1cccc(N2CCN(C(=O)Cn3nc(C(=O)N4CCO[C@H](CO)C4)c4c3C[C@H]3C[C@@H]43)C3(CC3)C2)c1C [Example 363, 1-(7-(2,3-dimethylphenyl)-4,7-diazaspiro[2.5]octan-4-yl)-2-((3bR,4aR)-3-((S)-2-(hydroxymethyl)morpholine-4-carbonyl)-3b,4,4a,5-tetrahydro-1H-cyclopropa[3,4]cyclopenta[1,2-c]pyrazol-1-yl)ethanone]
25 | 235 | C[C@@H]1CN(C(=O)c2nn(CC(=O)N3CCN(c4ccc(F)c(F)c4F)CC3)c3c2CCC3)C[C@H](C)O1 [Example 70, 2-{3-[(2R,6S)-2,6-dimethylmorpholine-4-carbonyl]-5,6-dihydrocyclopenta[c]pyrazol-1(4H)-yl}-1-[4-(2,3,4-trifluorophenyl)piperazin-1-yl]ethan-1-one]
26 | 3.22 | Cc1cccc(N2CCN(C(=O)Cn3nc(C(=O)N4CCC5(CCCC(=O)N5)CC4)c4c3CCC4)CC2)c1C [Example 183, 9-(1-{2-[4-(2,3-dimethylphenyl)piperazin-1-yl]-2-oxoethyl}-1,4,5,6-tetrahydrocyclopenta[c]pyrazole-3-carbonyl)-1,9-diazaspiro[5.5]undecan-2-one]
